Assay results published in BigSolDB 2.1.

CC(C)COc1ccc(B(O)O)cc1
Details | solubility (mole fraction)
in 3-pentanone, 294.65 K | 0.114
in 3-pentanone, 298.65 K | 0.128
in 3-pentanone, 303.75 K | 0.146
in 3-pentanone, 307.25 K | 0.172
in 3-pentanone, 309.35 K | 0.187
in 3-pentanone, 313.65 K | 0.205
in 3-pentanone, 317.65 K | 0.232
in 3-pentanone, 325.55 K | 0.265
in 3-pentanone, 331.35 K | 0.31
in 3-pentanone, 334.65 K | 0.335
in 3-pentanone, 339.65 K | 0.367
in 3-pentanone, 349.65 K | 0.411
in acetone, 294.45 K | 0.127
in acetone, 296.85 K | 0.132
in acetone, 299.75 K | 0.139
in acetone, 304.75 K | 0.149
in acetone, 309.45 K | 0.16
in acetone, 312.25 K | 0.171
in acetone, 318.75 K | 0.19
in acetone, 322.55 K | 0.204
in acetone, 325.35 K | 0.218
in chloroform, 296.25 K | 0.0212
in chloroform, 299.95 K | 0.0253
in chloroform, 303.65 K | 0.0304
in chloroform, 308.65 K | 0.0367
in chloroform, 309.65 K | 0.0415
in chloroform, 310.85 K | 0.0471
in chloroform, 312.65 K | 0.0555
in chloroform, 316.35 K | 0.0668
in chloroform, 319.65 K | 0.0785
in chloroform, 322.35 K | 0.0936
in chloroform, 328.75 K | 0.115
in chloroform, 334.25 K | 0.146
in chloroform, 338.65 K | 0.202
in chloroform, 338.75 K | 0.183
in chloroform, 343.15 K | 0.254
in chloroform, 346.65 K | 0.279
in chloroform, 352.65 K | 0.324
in chloroform, 353.85 K | 0.335
in dipropyl ether, 296.65 K | 0.0352
in dipropyl ether, 303.15 K | 0.0416
in dipropyl ether, 308.15 K | 0.0497
in dipropyl ether, 308.45 K | 0.0587
in dipropyl ether, 312.65 K | 0.0705
in dipropyl ether, 315.65 K | 0.082
in dipropyl ether, 320.15 K | 0.0995
in dipropyl ether, 325.55 K | 0.128
in dipropyl ether, 330.05 K | 0.165
in dipropyl ether, 333.15 K | 0.196
in dipropyl ether, 336.65 K | 0.229
in dipropyl ether, 339.45 K | 0.261
in dipropyl ether, 344.15 K | 0.314
in dipropyl ether, 348.65 K | 0.345
in methylcyclohexane, 318.55 K | 0.0096
in methylcyclohexane, 323.65 K | 0.0191
in methylcyclohexane, 328.45 K | 0.03
in methylcyclohexane, 334.75 K | 0.0514
in methylcyclohexane, 343.55 K | 0.118
in methylcyclohexane, 344.65 K | 0.204
in methylcyclohexane, 345.55 K | 0.266
in methylcyclohexane, 350.95 K | 0.322

CC(C)COc1ccccc1B(O)O
Details | solubility (mole fraction)
in 3-pentanone, 295.65 K | 0.301
in 3-pentanone, 296.55 K | 0.288
in 3-pentanone, 297.65 K | 0.304
in 3-pentanone, 298.55 K | 0.324
in 3-pentanone, 300.65 K | 0.306
in 3-pentanone, 300.85 K | 0.322
in 3-pentanone, 302.55 K | 0.322
in 3-pentanone, 303.05 K | 0.338
in 3-pentanone, 305.35 K | 0.356
in 3-pentanone, 306.05 K | 0.342
in 3-pentanone, 308.35 K | 0.362
in 3-pentanone, 309.05 K | 0.378
in 3-pentanone, 312.05 K | 0.376
in 3-pentanone, 312.25 K | 0.396
in 3-pentanone, 313.85 K | 0.426
in 3-pentanone, 318.15 K | 0.407
in 3-pentanone, 318.85 K | 0.444
in 3-pentanone, 319.15 K | 0.478
in 3-pentanone, 319.55 K | 0.455
in 3-pentanone, 322.55 K | 0.482
in 3-pentanone, 324.85 K | 0.503
in 3-pentanone, 325.55 K | 0.526
in 3-pentanone, 328.85 K | 0.547
in 3-pentanone, 331.25 K | 0.609
in 3-pentanone, 337.25 K | 0.67
in 3-pentanone, 345.35 K | 0.766
in acetone, 293.65 K | 0.281
in acetone, 300.35 K | 0.314
in acetone, 303.65 K | 0.339
in acetone, 309.35 K | 0.372
in acetone, 315.65 K | 0.411
in acetone, 320.75 K | 0.467
in acetone, 327.35 K | 0.533
in acetone, 333.95 K | 0.611
in acetone, 337.75 K | 0.639
in acetone, 341.35 K | 0.695
in acetone, 344.45 K | 0.737
in acetone, 347.75 K | 0.8
in acetone, 350.55 K | 0.823
in acetone, 353.65 K | 0.872
in acetone, 355.75 K | 0.901
in chloroform, 295.15 K | 0.277
in chloroform, 299.15 K | 0.307
in chloroform, 304.45 K | 0.338
in chloroform, 308.15 K | 0.361
in chloroform, 313.15 K | 0.402
in chloroform, 317.65 K | 0.432
in chloroform, 320.65 K | 0.465
in chloroform, 325.75 K | 0.514
in chloroform, 328.65 K | 0.547
in chloroform, 335.05 K | 0.618
in chloroform, 336.15 K | 0.637
in chloroform, 341.15 K | 0.7
in chloroform, 344.75 K | 0.715
in chloroform, 348.45 K | 0.774
in chloroform, 350.25 K | 0.822
in chloroform, 352.15 K | 0.866
in chloroform, 355.15 K | 0.895
in dipropyl ether, 294.15 K | 0.157
in dipropyl ether, 300.35 K | 0.185
in dipropyl ether, 304.35 K | 0.209
in dipropyl ether, 311.05 K | 0.259
in dipropyl ether, 316.45 K | 0.305
in dipropyl ether, 320.15 K | 0.345
in dipropyl ether, 325.05 K | 0.405
in dipropyl ether, 329.15 K | 0.446
in dipropyl ether, 330.15 K | 0.463
in dipropyl ether, 332.15 K | 0.499
in dipropyl ether, 335.05 K | 0.532
in dipropyl ether, 338.65 K | 0.606
in dipropyl ether, 340.75 K | 0.641
in dipropyl ether, 345.65 K | 0.73
in dipropyl ether, 348.75 K | 0.764
in dipropyl ether, 351.65 K | 0.813
in dipropyl ether, 353.05 K | 0.857
in methylcyclohexane, 300.05 K | 0.0138
in methylcyclohexane, 305.15 K | 0.0169
in methylcyclohexane, 305.85 K | 0.0208
in methylcyclohexane, 309.15 K | 0.0262
in methylcyclohexane, 312.25 K | 0.0333
in methylcyclohexane, 315.55 K | 0.046
in methylcyclohexane, 318.15 K | 0.0589
in methylcyclohexane, 321.95 K | 0.0885
in methylcyclohexane, 323.35 K | 0.103
in methylcyclohexane, 324.35 K | 0.118
in methylcyclohexane, 325.95 K | 0.139
in methylcyclohexane, 327.05 K | 0.163
in methylcyclohexane, 329.05 K | 0.198
in methylcyclohexane, 331.25 K | 0.21
in methylcyclohexane, 331.85 K | 0.236
in methylcyclohexane, 332.95 K | 0.253
in methylcyclohexane, 334.95 K | 0.328
in methylcyclohexane, 336.05 K | 0.354
in methylcyclohexane, 336.95 K | 0.371
in methylcyclohexane, 340.05 K | 0.479
in methylcyclohexane, 343.75 K | 0.567
in methylcyclohexane, 344.45 K | 0.628
in methylcyclohexane, 349.15 K | 0.731

CC(C)COc1cccc(B(O)O)c1
Details | solubility (mole fraction)
in 3-pentanone, 303.65 K | 0.191
in 3-pentanone, 307.15 K | 0.204
in 3-pentanone, 314.15 K | 0.233
in 3-pentanone, 318.75 K | 0.258
in 3-pentanone, 335.65 K | 0.289
in 3-pentanone, 339.15 K | 0.329
in 3-pentanone, 343.15 K | 0.354
in 3-pentanone, 348.15 K | 0.396
in 3-pentanone, 351.15 K | 0.443
in 3-pentanone, 353.65 K | 0.488
in chloroform, 297.15 K | 0.018
in chloroform, 302.65 K | 0.0229
in chloroform, 306.65 K | 0.0278
in chloroform, 310.25 K | 0.0327
in chloroform, 313.95 K | 0.0408
in chloroform, 318.35 K | 0.0507
in chloroform, 323.05 K | 0.067
in chloroform, 328.55 K | 0.0899
in chloroform, 331.75 K | 0.131
in chloroform, 333.25 K | 0.19
in dipropyl ether, 298.65 K | 0.103
in dipropyl ether, 302.95 K | 0.116
in dipropyl ether, 305.15 K | 0.126
in dipropyl ether, 308.45 K | 0.137
in dipropyl ether, 312.15 K | 0.155
in dipropyl ether, 314.65 K | 0.172
in dipropyl ether, 319.75 K | 0.198
in dipropyl ether, 323.45 K | 0.232
in dipropyl ether, 329.95 K | 0.275
in dipropyl ether, 333.95 K | 0.34
in methylcyclohexane, 305.95 K | 0.0033
in methylcyclohexane, 308.45 K | 0.0049
in methylcyclohexane, 309.95 K | 0.0065
in methylcyclohexane, 315.75 K | 0.0082
in methylcyclohexane, 318.65 K | 0.0147
in methylcyclohexane, 322.65 K | 0.0343
in methylcyclohexane, 325.25 K | 0.0556
in methylcyclohexane, 327.05 K | 0.0817
in methylcyclohexane, 329.65 K | 0.132
in methylcyclohexane, 331.75 K | 0.154
